Paper PMC3681751, “Identification of a Novel Antimicrobial Peptide from Human Hepatitis B Virus Core Protein Arginine-Rich Domain (ARD)” (PLoS Pathogens, 2013)
Like-named read-outs stand apart in the source and are kept apart here. Residues, ends and D or L forms follow the SMILES beside them.

Columns and labels:
E. coli (ATCC 25922) = format: cell-based, Escherichia coli; conditions: 3 h at 37°C in phosphate buffer pH 7.2; triplicate
Outline: (§1)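 Bacteria were grown overnight at 37°C in Mueller–Hinton broth and diluted at mid-log phase to 10^6 CFU/ml in pH 7.2 sodium phosphate/NaCl buffer. Peptide dilutions in that buffer were added, then 3 h static incubation at 37°C. Plating on agar overnight gave the minimal bactericidal concentration.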

[1] = LPS/Lipid A competition ELISA; format: binding; conditions: 10 nM peptide, 1 µg LPS per well, E. coli Lipid A 0 to 10 µg/ml, 1 hour 37°C
Description: Several kinds of peptide-LPS or peptide-Lipid A binding assays were performed in this study: 1) Streptavidine-conjugated beads (Dynabeads MyOne Streptavidin T1, Invitrogen) were blocked by P. aeruginosa LPS (Sigma) at 37°C for 1.5 hour. After washing with PBST (PBS, pH 7.4 containing 0.1% (w/v) Tween-20), aliquots containing 250 pmol streptavidine-conjugated beads were incubated with a reaction mixture overnight at 4°C. The reaction mixture was prepared by mixing increasing amounts of biotinylated peptide HBc147-183 (0, 0.004, 0.02, 0.1, 0.5 and 2.5 µM) and 5 µg/ml P. aeruginosa LPS (Sigma) or 200 µg/ml E. coli lipid A (Sigma), at 37°C for 3 hour. After incubation overnight at 4°C, the reduction of LPS (or Lipid A) in the supernatants were measured by the Limulus Amebocyte Lysate (LAL) test (Charles River Endosafe) with an ELISA reader (Molecular Devices). The amount (EU/ml) of LPS was calculated according to the standard curve prepared with Endosafe Control Srandard Endotoxin. […] After trypsinization, the trypsin-released LPS in the supernatants were collected and measured by the Limulus Amebocyte Lysate (LAL) test. […] Plate-bound HBc147-183 was measured by streptavidin conjugated with HRP (1∶10000 dilution) for 1 hour at 37°C. […] The absorption was measured at 450 nm with a reference wavelength at 655 nm.

[2] = system: human red blood cells (hRBCs); experiment: Hemolytic activity; format: cell-based; conditions: 10% hRBCs in PBS, 1 h at 37°C, absorbance 405 nm; 100% = 1% Triton X-100; triplicates
Description: The hemolytic activities of peptides were determined by hemolysis against human red blood cells (hRBCs). Human blood was obtained in EDTA-containing tube and was centrifuged at 450 g for 10 min. The pellet was washed three times with PBS buffer, and a solution of 10% hRBCs was prepared. hRBCs solution was mixed with serial dilutions of peptides in PBS buffer, and the reaction mixtures were incubated for 1 h at 37°C. After centrifugation at 450 g for 10 min, the percentage of hemolysis was determined by measuring the absorbance at the wavelength of 405 nm of the supernatant. Blank and 100% hemolysis were determined in PBS buffer and in the presence of 1% Triton X-100, respectively.

HepG2 cells = experiment: Peptide uptake into mammalian cells; format: cell-based, human; conditions: data not shown
Description: To set up CFSE cell proliferation assay, 293 cells (human kidney origin) and Vero cells (monkey kidney origin) were resuspended in PBS to a final concentration of 10^6 cells/ml, before incubation with 10 µM CFSE dye (CellTrace CFSE cell proliferation kit, Invitrogen) at 37°C for 10 min. To quench the staining, ice-old culture media were then added and incubated on ice for 5 min. Labeled cells were then pelleted and washed three times by fresh medium containing 10% FBS before seeding into six well plates at a density of 3.3×10^5cells/well. After 20 h, the medium was removed and incubated with fresh medium containing 5, 25 and 100 µM HBc 147-183 for one hour (FITC-labeled ARD peptide had been largely internalized in 10 minutes after the addition of ARD peptides to the medium of HepG2 cells). Forty-eight hours later, cells were harvested and analyzed by flow cytometry (FACSCanto, BD Bioscience).

S. aureus (ATCC 19636) = format: cell-based, Staphylococcus aureus
Outline: as §1

S. aureus (ATCC 25923) = format: cell-based, Staphylococcus aureus
Outline: as §1

S. aureus (ATCC 29213) = format: cell-based, Staphylococcus aureus
Outline: as §1

P. aeruginosa = experiment: Killing kinetics; format: cell-based, Pseudomonas aeruginosa; conditions: 2 µM peptide (1×MBC), 37°C, triplicates
Description: For measurement of killing kinetics, bacteria and peptides were prepared as described above. Fifty µl of bacteria were mixed with fifty µl of peptides at the concentrations corresponding to MBC and were incubated at 37°C. At the indicated time, bacteria were serially diluted and placed on Mueller-Hinton broth agar plates for the viability measurement.

[3] = methicillin-resistant strain, 3 h at 37°C in phosphate buffer pH 7.2, triplicate

Structure (SMILES): CC(C)[C@H](NC(=O)[C@@H](NC(=O)[C@@H](N)[C@@H](C)O)C(C)C)C(=O)N[C@@H](CCCNC(=N)N)C(=O)N[C@@H](CCCNC(=N)N)C(=O)N[C@@H](CCCNC(=N)N)C(=O)NCC(=O)N[C@@H](CCCNC(=N)N)C(=O)N[C@@H](CO)C(=O)N1CCC[C@H]1C(=O)N[C@@H](CCCNC(=N)N)C(=O)N[C@@H](CCCNC(=N)N)C(=O)N[C@@H](CCCNC(=N)N)C(=O)N[C@H](C(=O)N1CCC[C@H]1C(=O)N[C@@H](CO)C(=O)N1CCC[C@H]1C(=O)N[C@@H](CCCNC(=N)N)C(=O)N[C@@H](CCCNC(=N)N)C(=O)N[C@@H](CCCNC(=N)N)C(=O)N[C@@H](CCCNC(=N)N)C(=O)N[C@@H](CO)C(=O)N[C@@H](CCC(N)=O)C(=O)N[C@@H](CO)C(=O)N1CCC[C@H]1C(=O)N[C@@H](CCCNC(=N)N)C(=O)N[C@@H](CCCNC(=N)N)C(=O)N[C@@H](CCCNC(=N)N)C(=O)N[C@@H](CCCNC(=N)N)C(=O)N[C@@H](CO)C(=O)N[C@@H](CCC(N)=O)C(=O)N[C@@H](CO)C(=O)N[C@@H](CCCNC(=N)N)C(=O)N[C@@H](CCC(=O)O)C(=O)N[C@@H](CO)C(=O)N[C@@H](CCC(N)=O)C(=O)N[C@@H](CS)C(=O)O)[C@@H](C)O [HBc147-183] (H-TVVRRRGRSPRRRTPSPRRRRSQSPRRRRSQSRESQC-OH; N-terminus and C-terminus assumed)
- Antimicrobial activity, MBC (E. coli (ATCC 25922)): 18.36 µg/mL
- Binding of peptide to plate-coated LPS with increasing Lipid A [1]: significantly decreased
- Hemolysis [2]: no detectable hemolysis
- Penetration through the cell membrane (HepG2 cells): can penetrate through the cell membrane
- MBC against S. aureus (S. aureus (ATCC 19636); ATCC 19636, 3 h): around 4 µM
- Antimicrobial activity, MBC (S. aureus (ATCC 19636); ATCC 19636, 3 h, pH 7.2): 4 µM
- Antimicrobial activity, MBC (S. aureus (ATCC 19636); [3]): 18.36 µg/mL
- Antimicrobial activity, MBC (S. aureus (ATCC 25923); ATCC 25923, 3 h, pH 7.2): 4 µM
- Antimicrobial activity, MBC (S. aureus (ATCC 25923); [3]): 18.36 µg/mL
- Antimicrobial activity, MBC (S. aureus (ATCC 29213); ATCC 29213, 3 h, pH 7.2): 4 µM
- Antimicrobial activity, MBC (S. aureus (ATCC 29213); [3]): 18.36 µg/mL
- Time to complete killing (P. aeruginosa): ≤ 20 min
